According to ChEMBL document CHEMBL4507294, “Data for DCP probe MSD-CYP11B2” (2021):

Legend:
[1] = target: Homeodomain-interacting protein kinase 3 (Homo sapiens) (UniProt Q9H422); conditions: Compound concentration 1000.0 nM
[2] = target: Serine/threonine-protein kinase Sgk1 (Homo sapiens) (UniProt O00141); conditions: Compound concentration 1000.0 nM
[3] = target: ALK tyrosine kinase receptor (Homo sapiens) (UniProt Q9UM73); conditions: Compound concentration 1000.0 nM
[4] = target: Mitogen-activated protein kinase kinase kinase 4 (Homo sapiens) (UniProt Q9Y6R4); conditions: Compound concentration 1000.0 nM
Mitogen-activated protein kinase kinase kinase 4 (Homo sapiens), sequence (Q9Y6R4 whole entry): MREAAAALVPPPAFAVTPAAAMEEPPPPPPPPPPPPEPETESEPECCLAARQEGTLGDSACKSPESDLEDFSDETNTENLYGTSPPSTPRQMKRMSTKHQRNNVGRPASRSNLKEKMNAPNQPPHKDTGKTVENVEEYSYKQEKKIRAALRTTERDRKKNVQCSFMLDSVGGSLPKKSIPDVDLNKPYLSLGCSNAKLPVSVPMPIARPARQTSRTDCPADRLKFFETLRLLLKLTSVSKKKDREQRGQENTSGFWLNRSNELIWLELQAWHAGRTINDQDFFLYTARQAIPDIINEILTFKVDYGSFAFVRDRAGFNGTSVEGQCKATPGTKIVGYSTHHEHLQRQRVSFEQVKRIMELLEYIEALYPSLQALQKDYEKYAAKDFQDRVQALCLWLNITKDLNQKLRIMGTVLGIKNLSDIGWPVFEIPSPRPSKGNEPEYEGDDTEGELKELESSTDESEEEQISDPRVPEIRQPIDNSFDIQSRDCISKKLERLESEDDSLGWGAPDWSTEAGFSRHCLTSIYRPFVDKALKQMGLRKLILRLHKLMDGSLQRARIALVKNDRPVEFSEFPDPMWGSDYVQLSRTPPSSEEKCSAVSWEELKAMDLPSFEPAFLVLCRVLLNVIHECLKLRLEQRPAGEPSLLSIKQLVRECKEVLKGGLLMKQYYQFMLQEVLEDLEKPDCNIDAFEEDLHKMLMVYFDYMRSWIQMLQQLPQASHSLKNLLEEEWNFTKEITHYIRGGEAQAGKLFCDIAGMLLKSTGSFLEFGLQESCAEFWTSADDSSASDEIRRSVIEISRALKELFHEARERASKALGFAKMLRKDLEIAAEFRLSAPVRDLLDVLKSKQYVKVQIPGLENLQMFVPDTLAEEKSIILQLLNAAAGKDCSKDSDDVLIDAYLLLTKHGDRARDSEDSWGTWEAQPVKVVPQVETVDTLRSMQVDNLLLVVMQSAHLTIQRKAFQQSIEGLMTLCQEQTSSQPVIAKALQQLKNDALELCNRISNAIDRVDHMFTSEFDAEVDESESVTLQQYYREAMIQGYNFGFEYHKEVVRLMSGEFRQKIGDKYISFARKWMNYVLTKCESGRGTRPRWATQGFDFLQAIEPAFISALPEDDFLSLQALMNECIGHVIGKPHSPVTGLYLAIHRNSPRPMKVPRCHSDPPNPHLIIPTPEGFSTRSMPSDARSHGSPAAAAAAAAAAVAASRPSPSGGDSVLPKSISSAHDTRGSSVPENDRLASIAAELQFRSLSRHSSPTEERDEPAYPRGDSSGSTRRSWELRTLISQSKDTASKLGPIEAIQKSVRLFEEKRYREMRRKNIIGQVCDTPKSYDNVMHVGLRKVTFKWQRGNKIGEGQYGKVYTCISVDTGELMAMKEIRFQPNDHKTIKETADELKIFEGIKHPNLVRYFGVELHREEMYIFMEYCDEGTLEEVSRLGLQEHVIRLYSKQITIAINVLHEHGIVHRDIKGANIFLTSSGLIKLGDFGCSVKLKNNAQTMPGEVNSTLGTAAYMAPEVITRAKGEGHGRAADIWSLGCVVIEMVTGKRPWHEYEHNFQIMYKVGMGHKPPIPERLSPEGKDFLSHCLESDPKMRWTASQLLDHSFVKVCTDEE

[5] = target: Ephrin type-A receptor 5 (Homo sapiens) (UniProt P54756); conditions: Compound concentration 1000.0 nM
[6] = target: Serine/threonine-protein kinase pim-3 (Homo sapiens) (UniProt Q86V86); conditions: Compound concentration 1000.0 nM
[7] = system: Tyrosine-protein kinase ABL1 (Homo sapiens), P00519 [Q252H]; conditions: Compound concentration 1000.0 nM
[8] = system: Tyrosine-protein kinase ABL1 (Homo sapiens), P00519 [F317I]; conditions: Compound concentration 1000.0 nM
[9] = target: Cyclin-dependent kinase 16 (Homo sapiens) (UniProt Q00536); conditions: Compound concentration 1000.0 nM
[10] = target: TGF-beta receptor type-1 (Homo sapiens) (UniProt P36897); conditions: Compound concentration 1000.0 nM
[11] = target: Protein kinase C iota type (Homo sapiens) (UniProt P41743); conditions: Compound concentration 1000.0 nM
Protein kinase C iota type (Homo sapiens), sequence (P41743 whole entry): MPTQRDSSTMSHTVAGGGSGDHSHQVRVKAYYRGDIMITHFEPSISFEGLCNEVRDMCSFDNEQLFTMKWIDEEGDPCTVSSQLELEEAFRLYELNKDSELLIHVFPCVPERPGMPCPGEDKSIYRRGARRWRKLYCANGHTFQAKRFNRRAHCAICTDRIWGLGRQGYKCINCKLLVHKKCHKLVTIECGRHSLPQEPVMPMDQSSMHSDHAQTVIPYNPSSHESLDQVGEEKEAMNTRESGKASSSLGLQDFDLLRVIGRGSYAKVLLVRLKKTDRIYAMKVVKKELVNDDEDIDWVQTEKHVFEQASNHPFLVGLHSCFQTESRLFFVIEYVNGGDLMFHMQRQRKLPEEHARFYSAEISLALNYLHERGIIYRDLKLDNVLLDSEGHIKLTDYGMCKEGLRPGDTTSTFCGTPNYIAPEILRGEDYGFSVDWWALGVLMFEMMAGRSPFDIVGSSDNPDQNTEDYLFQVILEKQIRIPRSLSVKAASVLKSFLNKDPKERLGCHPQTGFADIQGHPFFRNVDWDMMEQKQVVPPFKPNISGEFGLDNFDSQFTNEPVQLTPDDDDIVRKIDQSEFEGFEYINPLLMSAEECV

[12] = target: Homeodomain-interacting protein kinase 4 (Homo sapiens) (UniProt Q8NE63); conditions: Compound concentration 1000.0 nM
[13] = target: Serine/threonine-protein kinase STK11 (Homo sapiens) (UniProt Q15831); conditions: Compound concentration 1000.0 nM
[14] = target: Cyclin-dependent kinase 7 (Homo sapiens) (UniProt P50613); conditions: Compound concentration 1000.0 nM
[15] = target: Serine/threonine-protein kinase 3 (Homo sapiens) (UniProt Q13188); conditions: Compound concentration 1000.0 nM
[16] = target: 5-hydroxytryptamine receptor 1D (Homo sapiens) (UniProt P28221); conditions: Compound concentration 10.0 uM
[17] = target: Casein kinase I isoform alpha-like (Homo sapiens) (UniProt Q8N752); conditions: Compound concentration 1000.0 nM
[18] = target: Fibroblast growth factor receptor 1 (Homo sapiens) (UniProt P11362); conditions: Compound concentration 1000.0 nM
[19] = target: Activin receptor type-2B (Homo sapiens) (UniProt Q13705); conditions: Compound concentration 1000.0 nM
[20] = target: Serine/threonine-protein kinase 10 (Homo sapiens) (UniProt O94804); conditions: Compound concentration 1000.0 nM
Serine/threonine-protein kinase 10 (Homo sapiens), sequence (O94804 whole entry, looked up): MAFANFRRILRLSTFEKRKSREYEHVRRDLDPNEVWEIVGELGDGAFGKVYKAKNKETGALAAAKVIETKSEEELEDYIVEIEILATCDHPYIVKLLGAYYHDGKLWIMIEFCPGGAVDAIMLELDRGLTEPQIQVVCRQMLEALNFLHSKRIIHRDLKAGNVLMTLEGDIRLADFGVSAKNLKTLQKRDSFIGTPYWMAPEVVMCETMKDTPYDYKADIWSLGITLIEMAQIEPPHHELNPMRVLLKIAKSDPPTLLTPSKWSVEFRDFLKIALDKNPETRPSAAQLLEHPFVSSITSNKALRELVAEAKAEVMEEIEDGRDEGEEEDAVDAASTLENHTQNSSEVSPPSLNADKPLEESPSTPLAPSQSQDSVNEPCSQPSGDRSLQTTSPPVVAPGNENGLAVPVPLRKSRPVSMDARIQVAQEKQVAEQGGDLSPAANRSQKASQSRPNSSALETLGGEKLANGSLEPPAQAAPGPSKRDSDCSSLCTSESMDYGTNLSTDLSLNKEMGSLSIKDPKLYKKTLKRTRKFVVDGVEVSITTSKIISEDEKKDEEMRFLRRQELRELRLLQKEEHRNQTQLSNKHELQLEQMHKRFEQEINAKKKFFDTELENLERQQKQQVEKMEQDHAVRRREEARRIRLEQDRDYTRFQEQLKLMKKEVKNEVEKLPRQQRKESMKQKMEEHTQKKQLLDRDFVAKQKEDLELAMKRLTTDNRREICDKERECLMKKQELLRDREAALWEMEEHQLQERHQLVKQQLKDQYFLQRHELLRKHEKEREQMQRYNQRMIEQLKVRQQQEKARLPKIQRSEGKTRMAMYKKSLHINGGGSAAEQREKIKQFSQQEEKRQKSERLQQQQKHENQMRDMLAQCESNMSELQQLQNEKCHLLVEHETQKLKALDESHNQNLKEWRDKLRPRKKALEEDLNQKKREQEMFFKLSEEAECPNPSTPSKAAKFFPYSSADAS

[21] = target: Serine/threonine-protein kinase ICK (Homo sapiens) (UniProt Q9UPZ9); conditions: Compound concentration 1000.0 nM
[22] = target: Phosphatidylinositol 5-phosphate 4-kinase type-2 gamma (Homo sapiens) (UniProt Q8TBX8); conditions: Compound concentration 1000.0 nM
[23] = target: Tyrosine-protein kinase receptor TYRO3 (Homo sapiens) (UniProt Q06418); conditions: Compound concentration 1000.0 nM
[24] = system: Tyrosine-protein kinase ABL1 (Homo sapiens), P00519 [H396P]; conditions: Compound concentration 1000.0 nM
[25] = target: Leucine-rich repeat serine/threonine-protein kinase 2 (Homo sapiens) (UniProt Q5S007); conditions: Compound concentration 1000.0 nM
[26] = target: Casein kinase II subunit alpha' (Homo sapiens) (UniProt P19784); conditions: Compound concentration 1000.0 nM
Casein kinase II subunit alpha' (Homo sapiens), sequence (P19784 whole entry, looked up): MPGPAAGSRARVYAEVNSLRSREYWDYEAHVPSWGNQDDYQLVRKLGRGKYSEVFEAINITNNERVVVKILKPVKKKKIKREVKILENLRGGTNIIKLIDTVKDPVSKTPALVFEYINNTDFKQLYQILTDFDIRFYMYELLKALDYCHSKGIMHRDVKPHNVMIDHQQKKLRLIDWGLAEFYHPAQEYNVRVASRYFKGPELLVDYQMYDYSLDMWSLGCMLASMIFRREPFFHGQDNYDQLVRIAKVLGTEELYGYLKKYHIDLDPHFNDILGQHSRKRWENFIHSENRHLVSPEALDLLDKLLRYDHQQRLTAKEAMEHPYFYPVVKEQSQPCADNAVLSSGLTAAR

[27] = target: Cyclin-G-associated kinase (Homo sapiens) (UniProt O14976); conditions: Compound concentration 1000.0 nM
[28] = target: Tyrosine-protein kinase BTK (Homo sapiens) (UniProt Q06187); conditions: Compound concentration 1000.0 nM
[29] = target: Cyclin-dependent kinase 4 (Homo sapiens) (UniProt P11802); conditions: Compound concentration 1000.0 nM
Cyclin-dependent kinase 4 (Homo sapiens), sequence (P11802 whole entry): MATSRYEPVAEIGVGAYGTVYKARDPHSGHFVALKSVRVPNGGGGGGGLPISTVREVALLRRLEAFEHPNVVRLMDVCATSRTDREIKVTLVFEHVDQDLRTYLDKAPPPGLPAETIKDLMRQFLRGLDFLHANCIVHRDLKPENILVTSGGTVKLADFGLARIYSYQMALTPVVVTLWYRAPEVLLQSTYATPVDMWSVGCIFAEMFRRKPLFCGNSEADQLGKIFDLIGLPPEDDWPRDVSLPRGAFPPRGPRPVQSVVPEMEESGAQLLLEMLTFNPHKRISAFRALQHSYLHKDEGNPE

[30] = system: Mast/stem cell growth factor receptor Kit (Homo sapiens), P10721 [V559D]; conditions: Compound concentration 1000.0 nM
Mast/stem cell growth factor receptor Kit (Homo sapiens), P10721 [V559D], sequence (P10721 whole entry V559D, the tested form may be a part): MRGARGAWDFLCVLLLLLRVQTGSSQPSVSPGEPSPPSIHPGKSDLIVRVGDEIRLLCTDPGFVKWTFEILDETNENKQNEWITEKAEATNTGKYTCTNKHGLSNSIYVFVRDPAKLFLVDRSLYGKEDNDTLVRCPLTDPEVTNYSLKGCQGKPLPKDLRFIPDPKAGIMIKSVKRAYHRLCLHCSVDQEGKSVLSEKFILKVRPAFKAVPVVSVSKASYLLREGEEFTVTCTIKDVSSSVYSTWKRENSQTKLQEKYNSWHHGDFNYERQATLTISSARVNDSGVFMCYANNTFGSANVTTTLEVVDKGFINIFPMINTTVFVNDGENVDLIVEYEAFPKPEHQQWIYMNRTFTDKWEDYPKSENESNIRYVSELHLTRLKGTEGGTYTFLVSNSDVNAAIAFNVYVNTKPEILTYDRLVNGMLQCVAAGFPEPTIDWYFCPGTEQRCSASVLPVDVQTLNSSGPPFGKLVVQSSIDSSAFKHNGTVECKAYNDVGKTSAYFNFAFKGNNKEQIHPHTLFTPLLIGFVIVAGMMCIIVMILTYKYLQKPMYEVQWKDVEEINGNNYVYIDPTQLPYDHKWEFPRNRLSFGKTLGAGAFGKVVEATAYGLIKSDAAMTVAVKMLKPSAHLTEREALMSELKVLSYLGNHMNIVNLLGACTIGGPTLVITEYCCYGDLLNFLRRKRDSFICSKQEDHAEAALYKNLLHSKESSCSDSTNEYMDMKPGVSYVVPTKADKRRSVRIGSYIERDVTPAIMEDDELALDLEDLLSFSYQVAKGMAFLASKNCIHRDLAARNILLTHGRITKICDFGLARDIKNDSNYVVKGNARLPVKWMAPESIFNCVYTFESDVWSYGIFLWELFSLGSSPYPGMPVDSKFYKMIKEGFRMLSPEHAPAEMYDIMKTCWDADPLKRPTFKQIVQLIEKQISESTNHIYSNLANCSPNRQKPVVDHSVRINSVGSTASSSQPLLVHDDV

[31] = target: Phosphatidylinositol 3-kinase C2 domain-containing subunit gamma (Homo sapiens) (UniProt O75747); conditions: Compound concentration 1000.0 nM
[32] = target: Fibroblast growth factor receptor 2 (Homo sapiens) (UniProt P21802); conditions: Compound concentration 1000.0 nM
[33] = target: Mitogen-activated protein kinase kinase kinase kinase 5 (Homo sapiens) (UniProt Q9Y4K4); conditions: Compound concentration 1000.0 nM
[34] = target: Mitogen-activated protein kinase kinase kinase 2 (Homo sapiens) (UniProt Q9Y2U5); conditions: Compound concentration 1000.0 nM
[35] = target: Calcium/calmodulin-dependent protein kinase type II subunit delta (Homo sapiens) (UniProt Q13557); conditions: Compound concentration 1000.0 nM
[36] = system: Receptor-type tyrosine-protein kinase FLT3 (Homo sapiens), P36888 [N841I]; conditions: Compound concentration 1000.0 nM
[37] = target: Vascular endothelial growth factor receptor 1 (Homo sapiens) (UniProt P17948); conditions: Compound concentration 1000.0 nM
[38] = target: Hepatocyte growth factor receptor (Homo sapiens) (UniProt P08581); conditions: Compound concentration 1000.0 nM
[39] = target: Beta-adrenergic receptor kinase 1 (Homo sapiens) (UniProt P25098); conditions: Compound concentration 1000.0 nM
[40] = target: Receptor-type tyrosine-protein kinase FLT3 (Homo sapiens) (UniProt P36888); conditions: Compound concentration 1000.0 nM
[41] = target: Phosphatidylinositol 4,5-bisphosphate 3-kinase catalytic subunit gamma isoform (Homo sapiens) (UniProt P48736); conditions: Compound concentration 1000.0 nM
[42] = target: Mitogen-activated protein kinase kinase kinase 7 (Homo sapiens) (UniProt O43318); conditions: Compound concentration 1000.0 nM
[43] = target: Calcium/calmodulin-dependent protein kinase kinase 1 (Homo sapiens) (UniProt Q8N5S9); conditions: Compound concentration 1000.0 nM
[44] = target: Mitotic checkpoint serine/threonine-protein kinase BUB1 (Homo sapiens) (UniProt O43683); conditions: Compound concentration 1000.0 nM
[45] = target: Serine/threonine-protein kinase TNNI3K (Homo sapiens) (UniProt Q59H18); conditions: Compound concentration 1000.0 nM

CC(C)(O)c1cncc(-c2nc3ccc(F)cc3n2C2CC2)c1 [MSD-CYP11B2]
inactive: residual activity [1] 93% | residual activity [2] 100% | residual activity [3] 77% | residual activity [4] 100% | residual activity [5] 100% | residual activity [6] 98% | residual activity [7] 100% | residual activity [8] 100% | residual activity [9] 100% | residual activity [10] 90% | residual activity [11] 89% | residual activity [12] 100% | residual activity [13] 98% | residual activity [14] 88% | residual activity [15] 100% | inhibition [16] 0.75% | residual activity [17] 100% | residual activity [18] 100% | residual activity [19] 85% | residual activity [20] 100% | residual activity [21] 100% | residual activity [22] 100% | residual activity [23] 100% | residual activity [24] 100% | residual activity [25] 100% | residual activity [26] 100% | residual activity [27] 100% | residual activity [28] 83% | residual activity [29] 100% | residual activity [30] 100% | residual activity [31] 100% | residual activity [32] 100% | residual activity [33] 92% | residual activity [34] 100% | residual activity [35] 100% | residual activity [36] 100% | residual activity [37] 100% | residual activity [38] 100% | residual activity [39] 100% | residual activity [40] 100% | residual activity [41] 77% | residual activity [42] 100% | residual activity [43] 100% | residual activity [44] 99% | residual activity [45] 100%

FC(F)(F)c1ccc2c(c1)nc(-c1cccnc1)n2C1CC1 [MSD-CYP11B2-Negative-control]
inactive: residual activity [1] 100% | residual activity [2] 100% | residual activity [3] 100% | residual activity [4] 100% | residual activity [5] 96% | residual activity [6] 100% | residual activity [7] 100% | residual activity [8] 100% | residual activity [9] 100% | residual activity [10] 78% | residual activity [11] 83% | residual activity [12] 100% | residual activity [13] 100% | residual activity [14] 100% | residual activity [15] 94% | inhibition [16] 6.79% | residual activity [17] 100% | residual activity [18] 100% | residual activity [19] 100% | residual activity [20] 100% | residual activity [21] 100% | residual activity [22] 100% | residual activity [23] 100% | residual activity [24] 100% | residual activity [25] 100% | residual activity [26] 100% | residual activity [27] 100% | residual activity [28] 93% | residual activity [29] 100% | residual activity [30] 100% | residual activity [31] 100% | residual activity [32] 100% | residual activity [33] 100% | residual activity [34] 100% | residual activity [35] 100% | residual activity [36] 100% | residual activity [37] 100% | residual activity [38] 100% | residual activity [39] 100% | residual activity [40] 100% | residual activity [41] 92% | residual activity [42] 100% | residual activity [43] 100% | residual activity [44] 89% | residual activity [45] 100%
